Data from patent publication US20170296521A1, “PHARMACEUTICAL COMPOSITION FOR SUPPRESSION OF THROMBOEMBOLISM AFTER STENT PLACEMENT” (priority 2014, published 2017).
Counter-ions that a name gives are not always drawn.

Tested on: thrombus formation on stents in arteriovenous shunts
Experiment: rat stent thrombosis model (AV shunt with stents), amount of protein in thrombus
Format: in vivo
Conditions: for suppression of thrombus formation (rate of inhibition of amount of protein in thrombus): Example 1, FIG. 1A; for dose responsiveness of the antithrombotic effect: Example 1, Spearman's correlation coefficient test, P<0.001
Protocol: Each rat was anesthetized with thiopental sodium (100 mg/mL/kg, i.p.) and placed on a warming mat. 18 minutes after the start of the anesthesia, polyethylene tubes (approximately 34 cm) containing four stents were inserted into the right and left carotid arteries and jugular veins to produce arteriovenous shunts (hereinafter, referred to as “AV shunts”). Blood flow was started in the shunts. 30 minutes after the start of the blood flow, the stents with thrombus attached thereto were taken out, and the amount of protein in the thrombus was measured.
A 0.5% MC solution (10 mL/kg or 15 mL/kg) was orally administered to a control group. […] The collected thrombus-attached stents were stored at −20° C. until protein quantification. […] Then, the anti-FXa activity in the plasma was measured.
Aspirin (5 mg/15 ml/kg) or clopidogrel (3 mg/10 ml/kg) was orally administered to each rat fasted overnight. […] A 0.5% MC solution (10 mL/kg or 15 mL/kg) was orally administered to a control group.
Amount of protein in thrombus: The thrombus-attached stents were placed in 0.9 mL of a 0.1 N NaOH solution containing 2% Na2CO3 and boiled for approximately 30 minutes to solubilize protein.

CN1CCc2nc(C(=O)N[C@@H]3C[C@@H](C(=O)N(C)C)CC[C@@H]3NC(=O)C(=O)Nc3ccc(Cl)cn3)sc2C1.Cc1ccc(S(=O)(=O)O)cc1 [edoxaban, N-(5-chloropyridin-2-yl)-N′-[(1S,2R,4S)-4-(dimethylcarbamoyl)-2-(5-methyl-4,5,6,7-tetrahydro[1,3]thiazolo[5,4-c]pyridine-2-carboxamido)cyclohexyl]oxamide]
suppression of thrombus formation (rate of inhibition of amount of protein in thrombus) (0.3 mg/kg orally 30 minutes before AV shunting): 37% | suppression of thrombus formation (rate of inhibition of amount of protein in thrombus) (1 mg/kg orally 30 minutes before AV shunting): 70% | suppression of thrombus formation (rate of inhibition of amount of protein in thrombus) (3 mg/kg orally 30 minutes before AV shunting): 86% | dose responsiveness of the antithrombotic effect: dose-dependent | rate of suppression of thrombus formation (Example 2, FIG. 5A, edoxaban 0.5 mg/kg orally alone): 42% | rate of suppression of thrombus formation (Example 2, FIG. 6A, edoxaban 0.5 mg/kg orally alone): 25%

CC(=O)Oc1ccccc1C(=O)O [aspirin]
rate of suppression of thrombus formation (Example 1, FIG. 2A, 5 mg/kg orally two hours before AV shunting): 40% | rate of suppression of thrombus formation (Example 1, FIG. 2A, 10 mg/kg orally two hours before AV shunting): 47% | significance of the suppression of thrombus formation vs control (Example 1, FIG. 2A, 5 and 10 mg/kg orally, Dunnett's test): no significant effect | suppression of thrombus formation (Example 1, FIG. 2B, 10 mg/kg orally two hours before AV shunting): 63% | suppression of thrombus formation (Example 1, FIG. 2B, 25 mg/kg orally two hours before AV shunting): 64% | suppression of thrombus formation (Example 1, FIG. 2B, 50 mg/kg orally two hours before AV shunting): 70% | suppression of thrombus formation (Example 1, FIG. 2B, 100 mg/kg orally two hours before AV shunting): 83% | dose responsiveness of the antithrombotic effect: dose-dependent | rate of suppression of thrombus formation (Example 2, FIG. 5A, aspirin 5 mg/kg orally alone): 42%

ticagrelor sulfate
suppression of thrombus formation (Example 1, FIG. 4, 0.3 mg/kg orally two hours before AV shunting): 67% | suppression of thrombus formation (Example 1, FIG. 4, 1 mg/kg orally two hours before AV shunting): 74% | suppression of thrombus formation (Example 1, FIG. 4, 3 mg/kg orally two hours before AV shunting): 89% | dose responsiveness of the antithrombotic effect: dose-dependent

COC(=O)[C@H](c1ccccc1Cl)N1CCc2sccc2C1 [clopidogrel, clopidogrel sulfate]
suppression of thrombus formation (Example 1, FIG. 3, 1 mg/kg orally two hours before AV shunting): 40% | suppression of thrombus formation (Example 1, FIG. 3, 3 mg/kg orally two hours before AV shunting): 47% | suppression of thrombus formation (Example 1, FIG. 3, 10 mg/kg orally two hours before AV shunting): 84% | suppression of thrombus formation (Example 1, FIG. 3, 30 mg/kg orally two hours before AV shunting): 94% | dose responsiveness of the antithrombotic effect: dose-dependent | rate of suppression of thrombus formation (Example 2, FIG. 6A, clopidogrel 3 mg/kg orally alone): 21%
